# Experimental data from patent publication US20070128217A1 (priority 2003, published 2007).
# What was measured:
# [1] = test system: antibodies in sera from SARS patients (sera 1a, 1b, 2, 6, 37, 62, London, SARS-yellow, SARS-green); format: binding, human; design: Binding of serum 6 to linear peptides of protein X1 of SARS-CoV Urbani / Binding of serum 37 to linear peptides of protein X1 of SARS-CoV Urbani / Binding of serum 6 to looped/cyclic peptide (PEPSCAN-ELISA) / Binding of serum 37 to looped/cyclic peptide (PEPSCAN-ELISA) / Binding of serum 37 to looped/cyclic peptides of protein X1 of SARS-CoV Urbani / Binding of serum 6 to linear peptides of protein X2 / Binding of serum 37 to linear peptides of protein X2 / Binding of serum 37 to looped/cyclic peptides of protein X2 of SARS-CoV Urbani / Binding of serum 6 to linear peptides of protein M of SARS-CoV Urbani / Binding of serum 37 to linear peptides of protein M of SARS-CoV Urbani / Binding of serum 6 to looped/cyclic peptides of protein M of SARS-CoV Urbani / Binding of serum 37 to looped/cyclic peptides of protein M of SARS-CoV Urbani / Binding of serum 6 to linear peptides of protein X3 of SARS-CoV Urbani / Binding of serum 37 to linear peptides of protein X3 of SARS-CoV Urbani / Binding of serum 37 to looped/cyclic peptides of protein X3 of SARS-CoV Urbani / Binding of serum 6 to linear peptides of protein X4 of SARS-CoV Urbani / Binding of serum 37 to linear peptides of protein X4 of SARS-CoV Urbani / Binding of serum 37 to looped/cyclic peptides of protein X4 of SARS-CoV Urbani / Binding of serum 6 to linear peptides of protein X5 of SARS-CoV Urbani / Binding of serum 37 to linear peptides of protein X5 of SARS-CoV Urbani / Binding of serum 37 to looped/cyclic peptides of protein X5 of SARS-CoV Urbani / Binding of serum 6 to linear peptides of protein N of SARS-CoV Urbani / Binding of serum 37 to linear peptides of protein N of SARS-CoV Urbani / Binding of serum 6 to linear peptide (PEPSCAN-ELISA) / Binding of serum 1a to looped/cyclic peptides of protein N of SARS-CoV Urbani / Binding of serum 1b to looped/cyclic peptides of protein N of SARS-CoV Urbani / Binding of serum 2 to looped/cyclic peptides of protein N of SARS-CoV Urbani / Binding of serum 6 to looped/cyclic peptides of protein N of SARS-CoV Urbani / Binding of serum 37 to looped/cyclic peptides of protein N of SARS-CoV Urbani / Binding of serum 62 to looped/cyclic peptides of protein N of SARS-CoV Urbani / Binding of serum London to looped/cyclic peptides of protein N of SARS-CoV Urbani / Binding of serum SARS-green to looped/cyclic peptides of protein N of SARS-CoV Urbani: unit not given here
# [2] = test system: rabbit serum obtained by immunizing a rabbit with the SARS-CoV strain Frankfurt 1; format: binding; design: Binding of a rabbit serum to linear peptides / Binding of a rabbit serum to looped peptides / Rabbit serum linear peptides / Rabbit serum looped peptides / Binding of a rabbit serum to linear peptides of protein N of SARS-CoV Urbani (Rabbit serum linear peptides) / Binding of a rabbit serum to looped/cyclic peptides of protein N of SARS-CoV Urbani (Rabbit serum looped peptides): unit not given here
# [3] = test system: control sera (pooled serum of ten healthy LUMC hospital workers; commercial negative donor pooled serum from the Dutch bloodbank); format: binding, human; design: Binding of Control serum LUMC to linear peptides / Binding of Control serum Blood-bank to linear peptides / Binding of Control serum LUMC to looped peptides / Binding of Control Serum Blood-Bank to Looped peptides / Binding of Control serum LUMC to linear peptides of the protein M of SARS-CoV Urbani / Binding of Control serum Blood-bank to linear peptides of the protein M of SARS-CoV Urbani / Binding of Control serum LUMC to looped peptides of the protein M of SARS-CoV Urbani / Binding of Control Serum Blood-Bank to Looped peptides of the protein M of SARS-CoV Urbani: unit not given here
sequence,measurement,setting,value
RYNTRGNTYSTAWLC,Binding of serum 1a to linear peptides of protein X5 of SARS-CoV Urbani,[1],0.8
same,Binding of serum 1a to looped/cyclic peptides of protein X5 of SARS-CoV Urbani,[1],0.5
same,Binding of serum 1b to linear peptides of protein X5 of SARS-CoV Urbani,[1],0.4
same,Binding of serum 1b to looped/cyclic peptides of protein X5 of SARS-CoV Urbani,[1],0.0
same,Binding of serum 2 to linear peptides of protein X5 of SARS-CoV Urbani,[1],0.5
same,Binding of serum 2 to looped/cyclic peptides of protein X5 of SARS-CoV Urbani,[1],0.3
same,Binding of serum 6 to linear peptides of protein X5 of SARS-CoV Urbani,[1],0.9
same,Binding of serum 6 to looped/cyclic peptides of protein X5 of SARS-CoV Urbani,[1],0.1
same,Binding of serum 37 to linear peptides of protein X5 of SARS-CoV Urbani,[1],0.4
same,Binding of serum 37 to looped/cyclic peptides of protein X5 of SARS-CoV Urbani,[1],0.0
same,Binding of serum 62 to linear peptides of protein X5 of SARS-CoV Urbani,[1],0.7
same,Binding of serum 62 to looped/cyclic peptides of protein X5 of SARS-CoV Urbani,[1],0.2
same,Binding of serum London to linear peptides of protein X5 of SARS-CoV Urbani,[1],1.0
same,Binding of serum London to looped/cyclic peptides of protein X5 of SARS-CoV Urbani,[1],0.2
same,Binding of serum SARS-green to linear peptides of protein X5 of SARS-CoV Urbani,[1],0.6
same,Binding of serum SARS-green to looped/cyclic peptides of protein X5 of SARS-CoV Urbani,[1],0.1
same,Binding of serum SARS-yellow to linear peptides of protein X5 of SARS-CoV Urbani,[1],0.2
same,Binding of serum SARS-yellow to looped/cyclic peptides of protein X5 of SARS-CoV Urbani,[1],0.6
same,Rabbit serum linear peptides,[2],0.7
same,Rabbit serum looped peptides,[2],0.0
same,Binding of Control Serum Blood-Bank to Looped peptides,[3],0.0
same,Binding of Control serum Blood-bank to linear peptides,[3],0.7
same,Binding of Control serum LUMC to linear peptides,[3],0.3
same,Binding of Control serum LUMC to looped peptides,[3],0.1
LHKLLQTLVLKMLHS,Binding of serum 1a to linear peptides of protein X2,[1],0.6
same,Binding of serum 1a to looped/cyclic peptides of protein X2 of SARS-CoV Urbani,[1],0.6
same,Binding of serum 1b to linear peptides of protein X2,[1],0.0
same,Binding of serum 1b to looped/cyclic peptides of protein X2 of SARS-CoV Urbani,[1],0.5
same,Binding of serum 2 to linear peptides of protein X2,[1],0.4
same,Binding of serum 2 to looped/cyclic peptides of protein X2 of SARS-CoV Urbani,[1],0.4
same,Binding of serum 6 to linear peptides of protein X2,[1],0.3
same,Binding of serum 6 to looped/cyclic peptides of protein X2 of SARS-CoV Urbani,[1],0.6
same,Binding of serum 37 to linear peptides of protein X2,[1],0.4
same,Binding of serum 37 to looped/cyclic peptides of protein X2 of SARS-CoV Urbani,[1],0.4
same,Binding of serum 62 to linear peptides of protein X2,[1],0.5
same,Binding of serum 62 to looped/cyclic peptides of protein X2 of SARS-CoV Urbani,[1],0.6
same,Binding of serum London to linear peptides of protein X2,[1],0.4
same,Binding of serum London to looped/cyclic peptides of protein X2 of SARS-CoV Urbani,[1],1.0
same,Binding of serum SARS-green to linear peptides of protein X2,[1],0.6
same,Binding of serum SARS-green to looped/cyclic peptides of protein X2 of SARS-CoV Urbani,[1],0.4
same,Binding of serum SARS-yellow to linear peptides of protein X2,[1],0.3
same,Binding of serum SARS-yellow to looped/cyclic peptides of protein X2 of SARS-CoV Urbani,[1],0.7
same,Binding of a rabbit serum to linear peptides,[2],0.2
same,Binding of a rabbit serum to looped peptides,[2],0.4
same,Binding of Control Serum Blood-Bank to Looped peptides,[3],0.8
same,Binding of Control serum Blood-bank to linear peptides,[3],0.5
same,Binding of Control serum LUMC to linear peptides,[3],0.3
same,Binding of Control serum LUMC to looped peptides,[3],0.7
WLSYFVASFRLFART,Binding of serum 1a to linear peptides of protein M of SARS-CoV Urbani,[1],0.6
same,Binding of serum 1b to linear peptides of protein M of SARS-CoV Urbani,[1],0.5
same,Binding of serum 2 to linear peptides of protein M of SARS-CoV Urbani,[1],0.4
same,Binding of serum 6 to linear peptides of protein M of SARS-CoV Urbani,[1],0.4
same,Binding of serum 37 to linear peptides of protein M of SARS-CoV Urbani,[1],0.4
same,Binding of serum 62 to linear peptides of protein M of SARS-CoV Urbani,[1],0.4
same,Binding of serum London to linear peptides of protein M of SARS-CoV Urbani,[1],0.3
same,Binding of serum SARS-green to linear peptides of protein M of SARS-CoV Urbani,[1],0.4
same,Binding of serum SARS-yellow to linear peptides of protein M of SARS-CoV Urbani,[1],0.1
same,"Recognition of the peptide by sera of SARS-CoV infected individuals, and form (linear, looped/cyclic) in which it is recognized",[1],recognized in looped/cyclic form
same,Rabbit serum linear peptides,[2],0.2
same,Rabbit serum looped peptides,[2],0.4
same,Binding of Control Serum Blood-Bank to Looped peptides of the protein M of SARS-CoV Urbani,[3],0.6
same,Binding of Control serum Blood-bank to linear peptides of the protein M of SARS-CoV Urbani,[3],0.7
same,Binding of Control serum LUMC to linear peptides of the protein M of SARS-CoV Urbani,[3],0.6
same,Binding of Control serum LUMC to looped peptides of the protein M of SARS-CoV Urbani,[3],0.8
